Read-outs that look alike come from different tables or passages of the source.
Columns and labels:
[1] = tested on: Collagen IV; assay: Suppression of methylglyoxal-induced cross linking of collagen IV, by fluorescent intensity; format: biochemical
[2] = Redox potential of cross linking suppressors; format: physicochemical
[3] = tested on: AGE formation in peritoneum tissue; settings: rat
[4] = collagen IV + methylglyoxal in phosphate buffer solution, 37° C., 7 days, relative to Control 3 = 100
[5] = Table 3, Control 3 (no suppressor) +282

SMILES | Increase in FI % [1] [%] | Redox potential (mV) [2] | also measured
O=S([O-])S(=O)[O-].[Na+].[Na+] [Sodium hydrosulfite (Na2S2O4), Sodium hydrosulfite] | – | – | Increase in FI % [1, 4]: 0%; Redox potential (mV) [2, 5]: −360 mV
O=S([O-])O.[Na+] [Sodium bisulfite] | 0 | −127 mV | –
S [Sodium hydrosulfide] | 10 | −620 mV | –
O=S([O-])S(=O)(=O)[O-].[Na+].[Na+] [Sodium metabisulfite] | – | – | Increase in FI % [1, 4]: 0%; Redox potential (mV) [2, 5]: +17 mV
O=C(C[n+]1ccsc1)c1ccccc1.[Br-] [N-Phenacyl thiazolium bromide] | – | – | AGE formation in peritoneum (in words) ([3]; solution (C), methylglyoxal + additive, 5 days): did not form AGE; AGE formed on peritoneum tissue through first 5 days infusion, after second 5 days infusion (in words) ([3]; solution (D), additive alone for second 5 days): disappeared
CNC(=S)NC [Dimethylthiourea] | 2 | −40 mV | –
O=S([O-])([O-])=S.[Na+].[Na+] [Sodium thiosulfate] | 67 | +40 mV | –

Reference: patent US20040096845A1, “Peritoneal dialysates” (priority 2000, published 2004)
